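Where inhibition never reached the appropriate level, the endpoint shown equals the highest concentration tested. Otherwise, values were interpolated linearly from a five-concentration, 48-hour dose response in 96-well plates. Definition used: TGI = concentration required for complete inhibition of growth.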
What was measured:
Test in all cases: DTP human tumour cell line panel, 48 h
HS 578T breast = test system: HS 578T breast
HCT-116 colon = test system: HCT-116 colon
UO-31 renal = test system: UO-31 renal
SF-539 CNS = test system: SF-539 CNS
HT29 colon = test system: HT29 colon
SF-268 CNS = test system: SF-268 CNS
BT-549 breast = test system: BT-549 breast
ACHN renal = test system: ACHN renal
SK-MEL-2 melanoma = test system: SK-MEL-2 melanoma
CAKI-1 renal = test system: CAKI-1 renal
SK-OV-3 ovarian = test system: SK-OV-3 ovarian
SN12C renal = test system: SN12C renal
A498 renal = test system: A498 renal
MDA-MB-231 breast = test system: MDA-MB-231 breast

Structure (SMILES) | TGI (HS 578T breast) | TGI (HCT-116 colon) | TGI (UO-31 renal) | TGI (SF-539 CNS) | TGI (HT29 colon) | TGI (SF-268 CNS) | TGI (BT-549 breast) | TGI (ACHN renal) | TGI (SK-MEL-2 melanoma) | TGI (CAKI-1 renal) | TGI (SK-OV-3 ovarian) | TGI (SN12C renal) | TGI (A498 renal) | TGI (MDA-MB-231 breast)
CC[C@H]1C=CCC[C@@]2(C[C@@H]3CC[C@H]4[C@@H](C(=O)OCCCCCCCCCCCCCCCC(=O)N(CCCNC(C)=O)C[C@H](CCNC(C)=O)OC(C)=O)[C@@]5(CCC[C@@H](C)O5)NC(=[N+]34)N2)O1 | 4.83 µM | 2.92 µM | 3.16 µM | 2.87 µM | 2.7 µM | 3.38 µM | 3.5 µM | 3.3 µM | 3.31 µM | 5.08 µM | 3.12 µM | 3.54 µM | 3.27 µM | –
COc1cc(/C=C2\CC(C)C/C(=C\c3ccc(O)c(OC)c3)C2=O)ccc1O (stereo not given) | 10.4 µM | 3.4 µM | 5.41 µM | > 23.7 µM | 20.1 µM | 20.7 µM | 12.3 µM | 10.2 µM | 17.8 µM | – | 12.4 µM | 8.35 µM | 9.61 µM | 8.35 µM
Cc1ccc(/C=C2\CCCCCC2=O)cc1 | > 100 µM | > 100 µM | > 100 µM | – | > 100 µM | > 100 µM | > 100 µM | > 100 µM | > 100 µM | > 100 µM | > 100 µM | > 100 µM | > 100 µM | > 100 µM
CC(C)(C)OC(=O)NC(Cc1ccc(OCc2ccccc2)cn1)C(N)=O (stereo not given) | > 100 µM | > 100 µM | > 100 µM | > 100 µM | > 100 µM | > 100 µM | > 100 µM | > 100 µM | – | > 100 µM | – | > 100 µM | > 100 µM | > 100 µM
Cn1c(-c2cccs2)cc(-c2ccsc2)c1-c1cccs1 | > 100 µM | > 100 µM | > 100 µM | > 100 µM | > 100 µM | > 100 µM | > 100 µM | > 100 µM | – | > 100 µM | > 100 µM | > 100 µM | > 100 µM | > 100 µM
O=[N+]([O-])c1cc2ccc1OCc1cccc(n1)COc1ccc(cc1[N+](=O)[O-])C=NCCCCCCCCN=C2 | > 100 µM | > 100 µM | > 100 µM | > 100 µM | > 100 µM | > 100 µM | > 100 µM | > 100 µM | > 100 µM | > 100 µM | – | > 100 µM | > 100 µM | > 100 µM
CC(=O)c1sc2n(C)c(=O)c3ccccc3[n+]2c1C | > 100 µM | > 100 µM | > 100 µM | > 100 µM | > 100 µM | > 100 µM | > 100 µM | > 100 µM | > 100 µM | > 100 µM | > 100 µM | > 100 µM | – | > 100 µM
COc1ccc2cc(/C=N\NC(=O)Nc3ccc([N+](=O)[O-])cc3)ccc2c1 | > 31.6 µM | 16.3 µM | 18.8 µM | 18.3 µM | 16.1 µM | > 31.6 µM | 18.6 µM | 19.8 µM | 20.5 µM | 18.5 µM | 18.5 µM | 18 µM | – | 19.1 µM
CCOC(=O)CON=c1c2ccccc2ccc2ccccc12 | > 100 µM | > 100 µM | > 100 µM | > 100 µM | > 100 µM | > 100 µM | > 100 µM | > 100 µM | > 100 µM | > 100 µM | > 100 µM | > 100 µM | – | > 100 µM
COC(=O)/C=C1/OC(c2ccc(C)cc2C)=CC1=O | 81.7 µM | 24.1 µM | 30.5 µM | 33 µM | 18.8 µM | 48.9 µM | 29.9 µM | 29.3 µM | – | 34.5 µM | 33.1 µM | – | 42.3 µM | 27.5 µM
COC1=CC(=O)c2c(n[nH]c2CCNC(=O)OCc2ccccc2)C1=O | 69.1 µM | 24.9 µM | 28.8 µM | 34.1 µM | 40.8 µM | – | 32.5 µM | 27.2 µM | 23.7 µM | – | – | 30.1 µM | 32.7 µM | 31.3 µM
CN(C)CCN=C1Nc2ccccc2C(=O)N2CSCC12 (stereo not given) | > 100 µM | > 100 µM | > 100 µM | – | > 100 µM | > 100 µM | > 100 µM | > 100 µM | > 100 µM | > 100 µM | > 100 µM | > 100 µM | > 100 µM | > 100 µM
COc1cc(OC)c2nc(C)c3c(c2c1)OCC3 | > 100 µM | > 100 µM | > 100 µM | > 100 µM | > 100 µM | > 100 µM | > 100 µM | > 100 µM | > 100 µM | 72 µM | – | > 100 µM | > 100 µM | 52.9 µM

Reference: PubChem BioAssay (NCI)
